“Also recorded” adds a separate entry of the source.
Legend:
Assay type in all cases: in vivo
skin wounds = assay: Longitudinal full thickness skin incision wound model in C57BL mice
From the text: The effects of Compound 1 on skin wound healing were studied in a mouse longitudinal full thickness skin incision wound model. Upon arrival, animals were identified by ear tags, weighed and left to acclimate for several days before initiation of the experiment. On the day of wounding, mice were weighed and divided into 6 experimental groups with 6 animals per group, in accordance to weight differences stratified randomization. Prior to the surgical procedure, mice were anesthetized with isoflurane and the back of the animals was trimmed. Full thickness longitudinal incisions of 20 mm were performed using a standard scalpel blade on the backs of the animals (parallel to the backbone). […] At this stage, the widest area of the wound was measured to establish a baseline wound width. […] At the end of the experiment, 8 days post wounding, mice were sacrificed, wound widths were measured and biopsies of the wound area were collected and subjected to analysis. […]
As a part of a daily morphological assessment, photo-documentation was performed using a digital camera FinePix S700. […] When evaluated on the same day as treatment groups, control group wounds appeared larger in size and were covered with thick cracked scabs that exposed a non-healed wound area (observed as reddish and pink areas) both at the edges and in the middle of the wounds. […]

[1] = system: collagen-induced arthritis; assay: Collagen-induced arthritis (CIA) in Lewis rats; conditions: 4 mg/kg PO QoD from onset to day 28
Protocol: Forty (40) female Lewis rats (BK), aged 6 to 8 weeks with a pre-treatment body weight range of 180 to 200 g were divided randomly into four (4) groups (Groups A-D) of ten (10) rats each. The rats in Groups B to D were immunized intradermally with bovine CII in IFA at three sites near the base of the tail and over the back with 500 μL of the emulsion on day 0 (200 μL, 200 μL, 100 μL for each site). On day 7, the rats in Groups B-D were given booster injections with the same amount of the emulsion intradermally near the former injection sites. […] Rats were weighed daily and a drug holiday was given to an animal when a weight loss of greater than 13%. CIA development was evaluated via macroscopic scoring and measurements of paw swelling. […] Foot volume was measured by plethysmometry on the same day of the arthritic measurement throughout the study period. The cubage of each hind paw and swelling rate were measured and using the following equation: Swelling Rate=(CN−C0)/C0×100%. […] The clinical scores were summed for each animal, and the total average of all animals in each group was expressed as the mean arthritic score. […] Prepared sections of hind paws were subjected to hematoxylin and eosin (H&E) staining.

diet-induced obesity = assay: Diet-induced obesity (DIO) model in Sprague-Dawley rats
Protocol: Male Sprague-Dawley rats of age 2 months were placed on a high fat diet (Research Diets Inc., product code D12492, 60% kcal % fat) for 3 months. A group of age-matched rats were fed normal lab chow (LabDiet 5001, ˜13% kcal % fat), these animals served as controls for DIO group.
At age 4 months, and 2 months into placement of high fat diet, all rats were allocated into 3 groups of N=7 based on equivalent body weights and food intakes. Body weights and food and water intakes were measured at approximately the same time each day. On treatment days, dosing was at approximately 2 hours before lights off.
The DIO control group was treated with vehicle (oral, 10 mL/kg dose volume; 0.5% Pluronic F68 and 0.5% PVP K29/32 in water) on each weekday. The Compound 2 1.5 mg/kg group was orally treated on each weekday throughout the treatment phase (dose 10 mL/kg dose volume; 0.5% Pluronic F68 and 0.5% PVP K29/32 in water). The Compound 2 3 mg/kg group (10 mL/kg dose volume; 0.5% Pluronic F68 and 0.5% PVP K29/32 in water) was orally treated initially once daily on each weekday for week 1, then twice weekly (Monday, Wednesday) for week 2. During treatment weeks 3 and 4, Compound 2 3 mg/kg treatment continued twice weekly, except dosing was on Monday and Thursday.
Prior to the treatment phase, 3 days baseline data were collected. The treatment phase was for 4 weeks. A washout phase of 10 days was also included.
Compound 2 was supplied in powder form. […] Active percentage was adjusted using BEW of 1.437 and prepared by dissolving into 0.5% w/v Pluronic F-68 and 0.5% w/v PVP K-29-32 vehicle solution. The vehicle solution was prepared on a weekly basis while Compound 2 was prepared fresh every 2 days and stored at +4° C. Animals were dosed at a volume of 10 mL/kg. Individual doses were calculated based on the most recent body weights to provide the proper mg/kg/day dosage.

[2] = 1.5-3 mg/kg oral, 28 day treatment period

SMILES | wound healing, morphological assessment (skin wounds; 4 or 7.5 mg/kg PO every other day, or 1 or 2.5 μM topical daily, Day 5 post-wounding) | incidence of tampering with wounds compared to vehicle treated mice (skin wounds; Compound 1 in PVP/Pluronic F-68 or Compound 1 in water) | Clinical Scores, Joint Swelling and histological examination [1] | histopathology of hind paws (H&E) [1] | body weight compared to DIO control group (diet-induced obesity; [2]) | daily food intake compared to DIO control group (diet-induced obesity; [2]) | water intake (diet-induced obesity; [2]) | body weight gain (percentage of body weight change from study day 3) compared to DIO controls (diet-induced obesity; 1.5 and 3 mg/kg, treatment days 7 and 14) | body weight compared to DIO controls (diet-induced obesity; washout phase)
CC(C)(C)C(=O)NNC(=O)/C=C\n1cnc(-c2cc(C(F)(F)F)cc(C(F)(F)F)c2)n1 [Compound 1, (Z)-3-(3-(3,5-bis(trifluoromethyl)phenyl)-1H-1,2,4-triazol-1-yl)-N′-pivaloylacrylohydrazide] | positive effect; also recorded: better wound healing | reduced the incidence of tampering with wounds; also recorded: prevented tampering with wounds | – | – | – | – | – | – | –
O=C(/C=C\n1cnc(-c2cc(C(F)(F)F)cc(C(F)(F)F)c2)n1)NNC(=O)CN1CCOCC1 [Compound 2, (Z)-3-(3-(3,5-bis(trifluoromethyl)phenyl)-1H-1,2,4-triazol-1-yl)-N′-(2-morpholinoacetyl)acrylohydrazide] | – | – | therapeutic efficacy | relatively intact cartilage was found on the joint surface and pannus formation was minimal | dose-related decrease | dose-related decrease; also recorded: decreases daily food intake in a dose dependent manner | significantly increased water intake | significant reduction in weight gain; also recorded: affects body weight gain at both 1.5 and 3 mg/kg doses | remained lower than DIO controls
